According to patent US11629135B2 (JUBILANT PRODEL LLC, priority 2017, dated 2023):

molecular target: T1, PD-1/PD-L1 interaction (Homo sapiens, UniProt Q9NZQ7); assay: PD-1/PD-L1 Homogenous Time-Resolved Fluorescence (HTRF) binding assay; conditions: Biochemical PD1/PD-L1 inhibition
T1 construct: Tag1 or Tag2 (undisclosed kit tag); purchased CisBio 63ADK000CPAPEG
Procedure: PD-L1 Enzyme Assay: Homogenous Time-Resolved Fluorescence (HTRF) Binding Assay
All binding studies were performed using PD-1/PD-L1 Binding Assay Kit from CisBio (Catalog #63ADK000CPAPEG), according to the manufacturer's protocol. The interaction between Tag1-PD-1 and […] was detected by anti-Tag1-Eu^3+ (HTRF donor) and anti-Tag2-XL665 (HTRF acceptor). When the donor and acceptor antibodies were brought to close proximity due to PD-1 and PD-L1 binding, excitation of the donor antibody triggered fluorescent resonance energy transfer (FRET) towards the acceptor antibody, which in turn emitted specifically at 665 nm. This specific signal is positively proportional to PD-1/PD-L1 interaction. The compounds blocking PD-1/PD-L1 interaction will cause a reduction in HTRF signal. The necessary reagents were mixed in the following order: 2 μl compounds (or diluents buffer), 4 μl PD-L1 protein, 4 μl PD-1 protein. After an incubation of 15 minutes, 5 μl of anti-Tag1-Eu^3+ and 5 μl of anti-Tag2-XL665 were added. The plate was sealed and incubated at RT for 1 h. The fluorescence emission was read at two different wavelengths (665 nm and 620 nm) on a BMG PheraStar® multiplate reader. Results were calculated from the 665 nm and 620 nm fluorescence signal and expressed in HTRF ratio=(665 nm/620 nm)×[…].

T1 sequence (Q9NZQ7 19-238 limits assumed): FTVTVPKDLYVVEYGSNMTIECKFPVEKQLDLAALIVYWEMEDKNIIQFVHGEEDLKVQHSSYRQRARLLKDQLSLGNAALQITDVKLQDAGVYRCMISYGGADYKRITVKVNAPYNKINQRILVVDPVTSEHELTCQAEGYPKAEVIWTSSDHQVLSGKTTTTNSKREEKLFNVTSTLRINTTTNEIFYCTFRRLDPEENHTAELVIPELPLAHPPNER

SMILES	IC50
Cc1c(COc2ncc(CN3CCCCC3C(=O)O)c(OCc3ccccc3)n2)cccc1-c1ccccc1 (stereo not drawn) [Compound 33, 1-((4-(benzyloxy)-2-((2-methyl-[1,1′-biphenyl]-3-yl)methoxy)pyrimidin-5-yl)methyl)piperidine-2-carboxylic acid]	> 500 nM
COc1nc(OCc2cccc(-c3ccccc3)c2C)nc(OC)c1CN1C[C@H](O)C[C@H]1C(=O)O [Compound 34, (2S,4R)-1-((4,6-dimethoxy-2-((2-methyl-[1,1′-biphenyl]-3-yl)methoxy)pyrimidin-5-yl)methyl)-4-hydroxypyrrolidine-2-carboxylic acid]	< 100 nM
COc1nc(OCc2cccc(-c3ccccc3)c2C)nc(OC)c1CNC(CO)(CO)CO [Compound 35, 2-(((4,6-dimethoxy-2-((2-methyl-[1,1′-biphenyl]-3-yl)methoxy)pyrimidin-5-yl)methyl)amino)-2-(hydroxymethyl)propane-1,3-diol]	< 100 nM
COc1nc(OCc2cccc(-c3ccccc3)c2C)nc(OC)c1CN1CCC[C@H]1C(=O)O [Compound 36, ((4,6-dimethoxy-2-((2-methyl-[1,1′-biphenyl]-3-yl)methoxy)pyrimidin-5-yl)methyl)-L-proline]	100 to 500 nM
COC(=O)C1COCCN1Cc1c(OC)nc(OCc2cccc(-c3ccccc3)c2C)nc1OC (stereo not drawn) [Compound 37, Methyl 4-((4,6-dimethoxy-2-((2-methyl-[1,1′-biphenyl]-3-yl)methoxy)pyrimidin-5-yl)methyl) morpholine-3-carboxylate]	> 500 nM
COc1nc(OCc2cccc(-c3ccccc3)c2C)nc(OC)c1CN1CCOCC1C(=O)O (stereo not drawn) [Compound 38, 4-((4,6-dimethoxy-2-((2-methyl-[1,1′-biphenyl]-3-yl)methoxy)pyrimidin-5-yl)methyl)morpholine-3-carboxylic acid]	< 100 nM
CCOc1nc(OCc2cccc(-c3ccccc3)c2C)nc(OCC)c1CN1C[C@H](O)C[C@H]1C(=O)O [Compound 39, (2S,4R)-1-((4,6-diethoxy-2-((2-methyl-[1,1′-biphenyl]-3-yl)methoxy)pyrimidin-5-yl)methyl)-4-hydroxypyrrolidine-2-carboxylic acid]	100 to 500 nM
CCOc1nc(OCc2cccc(-c3ccccc3)c2C)nc(OCC)c1CN1CCCC[C@H]1C(=O)O [Compound 40]	100 to 500 nM
CCOc1nc(OCc2cccc(-c3ccccc3)c2C)nc(OCC)c1CNC(CO)(CO)CO [Compound 41, 2-(((4,6-diethoxy-2-((2-methyl-[1,1′-biphenyl]-3-yl)methoxy)pyrimidin-5-yl)methyl)amino)-2-(hydroxymethyl)propane-1,3-diol]	100 to 500 nM
COc1nc(OCc2cccc(-c3ccccc3)c2C)nc(OC)c1CN1CCOC[C@H]1C(=O)O [Compound 43, (S)-4-((4,6-dimethoxy-2-((2-methyl-[1,1′-biphenyl]-3-yl)methoxy)pyrimidin-5-yl)methyl)morpholine-3-carboxylic acid]	< 100 nM
COc1nc(OCc2cccc(-c3ccccc3)c2C)nc(OC)c1CN1CCOCC1CC(=O)O (stereo not drawn) [Compound 44, 2-(4-((4,6-dimethoxy-2-((2-methyl-[1,1′-biphenyl]-3-yl)methoxy)pyrimidin-5-yl)methyl)morpholin-3-yl)acetic acid]	100 to 500 nM
COc1nc(OCc2cccc(-c3ccccc3)c2C)nc(OC)c1CN1CC2(CC2)C[C@H]1C(=O)O [Compound 46, (S)-5-((4,6-dimethoxy-2-((2-methyl-[1,1′-biphenyl]-3-yl)methoxy)pyrimidin-5-yl)methyl)-5-azaspiro[2.4]heptane-6-carboxylic acid]	< 100 nM
COc1nc(OCc2cccc(-c3ccccc3)c2C)nc(OC)c1CN1CCCC2(CCNC2=O)C1 (stereo not drawn) [Compound 47, 7-((4,6-dimethoxy-2-((2-methyl-[1,1′-biphenyl]-3-yl)methoxy)pyrimidin-5-yl)methyl)-2,7-diazaspiro[4.5]decan-1-one]	< 100 nM
COc1nc(OCc2cccc(-c3ccccc3)c2C)ncc1CN1CCN(C(C)=O)C[C@H]1C(=O)O [Compound 49, (S)-4-acetyl-1-((4-methoxy-2-((2-methyl-[1,1′-biphenyl]-3-yl)methoxy)pyrimidin-5-yl)methyl)piperazine-2-carboxylic acid]	> 500 nM
COc1nc(OCc2cccc(-c3ccccc3)c2C)ncc1CN1CCNC[C@H]1C(=O)O [Compound 50, (S)-1-((4-methoxy-2-((2-methyl-[1,1′-biphenyl]-3-yl)methoxy)pyrimidin-5-yl)methyl)piperazine-2-carboxylic acid]	> 500 nM
COc1nc(OCc2cccc(-c3ccccc3)c2C)ncc1CN1CC2(CC2)C[C@H]1C(=O)O [Compound 51, (S)-5-((4-methoxy-2-((2-methyl-[1,1′-biphenyl]-3-yl)methoxy)pyrimidin-5-yl)methyl)-5-azaspiro[2.4]heptane-6-carboxylic acid]	> 500 nM
COc1nc(OCc2cccc(-c3ccccc3)c2C)ncc1CN1CCCC2(CCNC2=O)C1 (stereo not drawn) [Compound 52, 7-((4-methoxy-2-((2-methyl-[1,1′-biphenyl]-3-yl)methoxy)pyrimidin-5-yl)methyl)-2,7-diazaspiro[4.5]decan-1-one]	> 500 nM
CC(=O)NCCNCc1cnc(OCc2cccc(-c3ccccc3)c2C)nc1OCc1ccc(F)c(C#N)c1 [Compound 53, N-(2-(((4-((3-cyano-4-fluorobenzyl)oxy)-2-((2-methyl-[1,1′-biphenyl]-3-yl)methoxy)pyrimidin-5-yl)methyl)amino)ethyl)acetamide]	> 500 nM
Cc1c(COc2ncc(CN3C[C@H](O)C[C@H]3C(=O)O)c(OCc3ccc(F)c(C#N)c3)n2)cccc1-c1ccccc1 [Compound 54, (2S,4R)-1-((4-((3-cyano-4-fluorobenzyl)oxy)-2-((2-methyl-[1,1′-biphenyl]-3-yl)methoxy)pyrimidin-5-yl)methyl)-4-hydroxypyrrolidine-2-carboxylic acid]	100 to 500 nM
COc1nc(OCc2cccc(-c3ccc4c(c3)OCCO4)c2C)nc(OC)c1CN1CCCC[C@H]1C(=O)O [Compound 55, (S)-1-((2-((3-(2,3-dihydrobenzo[b][1,4]dioxin-6-yl)-2-methylbenzyl)oxy)-4,6-dimethoxypyrimidin-5-yl)methyl)piperidine-2-carboxylic acid]	< 100 nM
COc1nc(OCc2cccc(-c3ccc4c(c3)OCCO4)c2C)nc(OC)c1CNCCNC(C)=O [Compound 56, N-(2-(((2-((3-(2,3-dihydrobenzo[b][1,4]dioxin-6-yl)-2-methylbenzyl)oxy)-4,6-dimethoxypyrimidin-5-yl)methyl)amino)ethyl)acetamide]	< 100 nM
COc1ccc(-c2cccc(COc3nc(OC)c(CNCCNC(C)=O)c(OC)n3)c2C)cc1OC [Compound 57, N-(2-(((2-((3′,4′-dimethoxy-2-methyl-[1,1′-biphenyl]-3-yl)methoxy)-4,6-dimethoxypyrimidin-5-yl)methyl)amino)ethyl)acetamide]	> 500 nM
COc1ccc(-c2cccc(COc3nc(OC)c(CN4C[C@H](O)C[C@H]4C(=O)O)c(OC)n3)c2C)cc1OC [Compound 58]	> 500 nM
Cc1c(COc2ncc(CN3C[C@H](O)C[C@H]3C(=O)O)c(OCc3cncc(C#N)c3)n2)cccc1-c1ccccc1 [Compound 59, (2S,4R)-1-((4-((5-cyanopyridin-3-yl)methoxy)-2-((2-methyl-[1,1′-biphenyl]-3-yl)methoxy)pyrimidin-5-yl)methyl)-4-hydroxypyrrolidine-2-carboxylic acid]	> 500 nM
COc1nc(OCc2cccc(-c3ccccc3)c2C)ncc1CN1CCCC[C@H]1CC(=O)O [Compound 60, (S)-2-(1-((4-methoxy-2-((2-methyl-[1,1′-biphenyl]-3-yl)methoxy)pyrimidin-5-yl)methyl)piperidin-2-yl) acetic acid]	100 to 500 nM
Cc1nc(OCc2cccc(-c3ccccc3)c2C)ncc1CN1CCCC[C@H]1C(=O)O [Compound 64, (S)-1-((4-methyl-2-((2-methyl-[1,1′-biphenyl]-3-yl)methoxy)pyrimidin-5-yl)methyl)piperidine-2-carboxylic acid]	< 100 nM
CC(=O)NCCNCc1cnc(OCc2cccc(-c3ccccc3)c2C)nc1C [Compound 65, N-(2-(((4-methyl-2-((2-methyl-[1,1′-biphenyl]-3-yl)methoxy)pyrimidin-5-yl)methyl)amino)ethyl)acetamide]	100 to 500 nM
